Values joined by “and” are separate entries in the source; they are usually repeats but may differ in a detail not shown here. Equal entries are not always repeated. Where two headings read alike, the source gives them in different places.

These results are taken from PMC7887271, “Fast acting allosteric phosphofructokinase inhibitors block trypanosome glycolysis and cure acute African trypanosomiasis in mice” (Nature Communications, 2021).

The assay has as its target T1, T. brucei phosphofructokinase (TbPFK) (Trypanosoma brucei brucei, UniProt O15648).
T1 construct: made in house; host or cells: Escherichia coli C41 (pET28a, codon optimised gene)
T1 sequence (O15648 1-487): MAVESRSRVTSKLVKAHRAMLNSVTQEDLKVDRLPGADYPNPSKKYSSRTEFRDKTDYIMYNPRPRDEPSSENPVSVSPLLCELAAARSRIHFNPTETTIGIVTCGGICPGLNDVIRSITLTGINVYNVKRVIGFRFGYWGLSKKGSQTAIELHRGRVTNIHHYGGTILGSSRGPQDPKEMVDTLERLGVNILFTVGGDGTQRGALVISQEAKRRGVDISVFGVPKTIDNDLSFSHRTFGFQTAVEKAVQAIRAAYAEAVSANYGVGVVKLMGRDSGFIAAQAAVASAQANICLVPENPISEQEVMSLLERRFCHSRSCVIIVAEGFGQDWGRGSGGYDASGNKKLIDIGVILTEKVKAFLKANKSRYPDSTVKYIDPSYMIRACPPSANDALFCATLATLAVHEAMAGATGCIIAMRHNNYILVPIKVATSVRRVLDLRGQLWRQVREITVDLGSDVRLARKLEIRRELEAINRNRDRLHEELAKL
The experiment in a line: ADP-Glo assay for measuring PFK inhibition. The class given is biochemical. Conditions: for RLU, avg / RLU, individual replicates: SuppFig1. The procedure:
Parasite enzyme kinetic data were measured using N-terminally His6-tagged TbPFK expressed in Escherichia coli C41 cells, using a codon optimised gene inserted in a pET28a vector (Supplementary Methods 1). Recombinant human PFKs were expressed in PFK-deficient Saccharomyces cerevisiae. PFK enzyme inhibition was measured using an ADP-Glo^TM assay (Promega) in a 96-well plate format (Supplementary Methods 2.1), using a Spectramax© M5 Multimode Plate Reader to measure luminescence values which were converted to ADP concentrations. IC50 values were determined using a sigmoidal curve fitting algorithm in Kaleidagraph 4 (Supplementary Fig. 1). Mode of action studies were carried out using a linked enzyme assay coupling the forward reaction of TbPFK to the M1 isoform of human pyruvate kinase followed by lactate dehydrogenase. The change in UV absorbance at 340 nm resulting from the conversion of NADH to NAD^+ was measured at 25 °C in ‘kinetic mode’ on a Spectramax© M5 Multimode plate reader. Initial velocities were plotted against substrate concentration to give curves showing non-competitive inhibition (Supplementary Fig. 2). An alternative linked enzyme assay was developed to control for the potential inhibitory activity of ATP on human PFK (Supplementary Methods 2.3).
The ADP-Glo™ end-point assay kit manufactured by Promega (cat. No. V9102) was used to measure ADP produced in the phosphofructokinase reaction:
Following this kinase reaction, the addition of a reagent results in any unused background ATP being removed and the reaction is sequestered. A second reagent is then added to convert the remaining ADP to ATP which is coupled to the luciferase/luciferin reaction to produce light. ‘Ultrapure’ ATP and ADP from Promega were used to reduce background noise. All reagents additional to those provided in the Promega ADP-Glo™ kit were purchased from Sigma-Aldrich.
The assay buffer comprised 50 mM triethanolamine (TEA), 10 mM MgCl2, 5 mM KCl, 0.1% w/v bovine serum albumin (BSA), 0.005% Tween-20, 1% DMSO, pH 7.4. A 3-fold serial dilution of 250x inhibitor stocks was carried out in 100% DMSO. 2 µl of these dilutions was added to 198 µl assay buffer and mixed well using a multichannel pipette. […] Concentration ranges of inhibitor compounds were 40 - 0.006 µM (final concentration, 1% DMSO). The PFK reaction in the presence of inhibitor was carried out using 10 µl of 1 µg/ml PFK (final concentration 0.4 µg/ml) which was added to 10 µl of the 1% DMSO inhibitor compound serial dilutions in a white, non-binding 96-well plate (Greiner BioOne 655904). CTCB-001 was used as a positive control at a final concentration of 5 µM. Assay buffer containing 1% DMSO was added instead of inhibitor compound for the negative control. The protein/inhibitor mixture was incubated for 10 minutes at room temperature (RT). The kinase reaction was started by adding a 5x ATP/F6P stock in assay buffer (final concentrations 0.5 mM F6P and 0.1 mM ATP). Plates were then sealed, centrifuged at 560 x g for 30 seconds and incubated at RT for 30 minutes. 25 µl of ‘ADP-Glo™ Reagent’ was then added to each well, mixed using a multichannel pipette and incubated at room temperature for 40 minutes. 50 µl of ‘Kinase Detection Reagent’ was added and incubated for 50 minutes at RT. The luminescence was recorded using a Spectramax© M5 Multi-mode Plate Reader (Molecular Devices) in single-point mode, with an integration time of 750 milliseconds. The luminescence values were converted to ADP concentration using a standard calibration curve for ADP. The resulting ADP concentrations were plotted as a function of inhibitor compound concentration using Kaleidagraph 4.0 software. The data were analysed using non-linear regression and a sigmoidal curve was fitted (Supplementary Figure 1) to determine the IC50. Kaleidagraph 4.0 uses the Levenberg-Marquardt algorithm in an iterative procedure to fit non-linear curves. […] The slope of the curve at the midpoint (m4) was set to 1.

Where [1] appears, read: ADP-Glo, mean ± SD, read-out: IC50 (µM) for inhibition of T. brucei phosphofructokinase (PFK IC50).
[2] abbreviates: source data, read-out: IC50 (µM), single dated measurement.
[3] abbreviates: source data for Fig. 2 and Table 1, read-out: Average IC50.

On to `CN(C)CCn1ccc2c(ccn2Cc2ccc(Cl)c(Cl)c2)c1=O` [CTCB 405], for which the “RLU, avg” value is, setting by setting: (Conc 0.00640146 uM) 39926.3 RLU; (Conc 0.0192044 uM) 39977.3 RLU; (Conc 0.0576132 uM) 34288.1 RLU; (Conc 0.17284 uM) 23285 RLU; (Conc 0.518519 uM) 10488.4 RLU; (Conc 1.55556 uM) 4498.05 RLU. Besides, the “RLU, avg” value stood at 2709.41 RLU (Conc 4.66667 uM) and 1717.44 RLU (Conc 14 uM). Further, the “RLU, individual replicates” value reads like this: (Conc 0.00640146 uM) 40029.2 RLU and 39823.3 RLU; (Conc 0.0192044 uM) 42153.7 RLU and 37800.9 RLU; (Conc 0.0576132 uM) 36858 RLU and 31718.2 RLU; (Conc 0.17284 uM) 25069.7 RLU and 21500.2 RLU; (Conc 0.518519 uM) 11745.9 RLU and 9230.85 RLU; (Conc 1.55556 uM) 4537.49 RLU and 4458.6 RLU. Moreover, the “RLU, individual replicates” value (Conc 4.66667 uM) is 2899.92 RLU and 2518.91 RLU; the “RLU, individual replicates” value (Conc 14 uM) was 1947.39 RLU and 1487.48 RLU.

Take `CN(C)CCn1ccc2c(ccn2Cc2ccc(Cl)c(Cl)c2)c1=O` [CTCB-405, 1-[(3,4-Dichlorophenyl)methyl]-5-[2-(dimethylamino)ethyl] pyrrolo[3,2-c]pyridin-4-one]: the IC50 (in general, the concentration at which inhibition is half-maximal) under setting [1] amounted to 0.18 ± 0.03 µM; the IC50 under setting [2] was 0.209 µM and 0.202 µM and 0.134 µM and 0.19 µM.

`CNCCn1ccc2c(ccn2Cc2ccc(Cl)c(Cl)c2)c1=O` [CTCB-435]: the IC50 is, setting by setting: under setting [3], 0.12 µM; under setting [2], 0.111 µM and 0.127 µM.

As to `CN(C)CCn1ccc2c(ccn2Cc2ccc(Cl)c(Br)c2)c1=O` [CTCB-470, 1-[(3-Bromo-4-chlorophenyl)methyl]-5-[2-(dimethylamino)ethyl] pyrrolo[3,2-c]pyridin-4-one], the IC50 reads like this: under setting [3], 0.21 µM; under setting [2], 0.137 µM and 0.154 µM and 0.209 µM and 0.359 µM.

`CN(C)CCn1ccc2c(ccn2Cc2ccc(F)c(Br)c2)c1=O` [CTCB-508, 1-[(3-Bromo-4-fluorophenyl)methyl]-5-[2-(dimethylamino)ethyl] pyrrolo[3,2-c]pyridin-4-one]: the IC50 is, setting by setting: under setting [1], 0.2 ± 0.05 µM; under setting [2], 0.13 µM and 0.229 µM and 0.25 µM.
